Laboratory results reported in patent US20170029388A1, “Treatment of Neurodegenerative Diseases with Asparagine Endopeptidase (AEP) Inhibitors and Compositions Related Thereto” (INTERCONTINENTAL GREAT BRANDS LLC, priority 2014, published 2017).
Entries after “also recorded” stand apart in the source; their conditions may differ.

Assays:
[1] = molecular target: Cathepsin-L (Homo sapiens, UniProt P07711); assay: Cathepsin-L enzymatic assay (specificity); assay type: biochemical
Procedure: Purified recombinant enzyme was incubated with various concentrations of inhibitor in appropriate assay buffers in the presence of increasing concentrations of inhibitor. The formation of fluorescent product was monitored in duplicate reactions and the data was fit to appropriate equations to calculate the IC50 values.
To identify small-molecule inhibitors of AEP, a high-throughput screen was designed in conjunction with the Emory Chemical Biology Discovery Center. The screen incorporated mouse kidney lysates to assay a 54,384 compound library. […] Additional structural analysis and grouping allowed the compounds to be sorted into 8 distinct backbone families. […] The specificity of the compounds was also determined using four major cysteine proteases (FIG. 2).
Cathepsin-L—100 nM enzyme was pre-incubated with inhibitor in assay buffer (100 mM Sodium Acetate pH 5.5, 1 mM EDTA) for 10 min at 37° C. The reaction was initiated upon addition of 25 μM substrate (D-Val-Leu-Lys-AMC (Bachem)).

[2] = test system: 5XFAD mice; assay: Synaptic density, spine density and LTP in 5XFAD mice; assay type: in vivo, mouse
Description: A. Representative electron microscopy of the synaptic structures. Arrows indicate the synapses. B. Quantitative analysis of the synaptic density in vehicle—and compound 11-treated 5XFAD mice. Data are shown as mean ±SEM (n=3 mice per group). * p <0.01. C. […] Scale bar, 5 μm. D. Quantitative analysis of the spine density. […] E. Long-term potentiation (LTP) of fEPSPs was induced by 3× TBS (4 pulses at 100 Hz, repeated 3 times with a 200-ms interval). Shown traces are representative fEPSPs recorded at the time point 1 and 2 (vehicle treated), 3 and 4 (compound 11-treated mouse). […] Data are presented as mean±SEM. *p<0.05 vs vehicle-treated mice. F. Synaptic transmission assessed by input/output (I/O) relation between stimuli intensity and fEPSP slope. I/O curves obtained in hippocampal slices prepared from vehicle- and compound 11-treated 5XFAD mice.
Synaptic dysfunction is the early feature of AD and is believed to be the basis of cognitive impairment. 5XFAD mice show decreased synaptic density compared to non-transgenic control mice. […] The density of dendritic spines along individual dendrites of pyramidal neurons was assessed by Golgi stain. […] Long-term potentiation (LTP) is a measure of synaptic plasticity that underlies learning and memory. 5XFAD mice have decreased LTP magnitude at Schaffer collateral-CA1 pathways.
Synaptic density was determined by electron microscopy as described previously (22). After deep anesthesia, mice were perfused transcardially with 2% glutaraldehyde and 3% paraformaldehyde in PBS. […]
Electrophysiological analysis was carried out as previously described (23). […] The field excitatory post-synaptic potentials (fEPSPs) were recorded in CA1 stratum radiatum by a glass microelectrode filled with a-CSF with resistance of 3-4 MEI The stimulation output (Master-8; AMPI, Jerusalem) was controlled by the trigger function of an EPC9 amplifier (HEKA Elektronik, Lambrecht, Germany). fEPSPs were recorded under current-clamp mode. […] The magnitudes of LTP are expressed as the mean percentage of baseline fEPSP initial slope. […]

[3] = test system: C57BL/6J mice; assay: Acute and chronic toxicity in C57BL/6J mice; conditions: 100 mg/kg

Cathepsin-L, sequence (P07711 114-333, species assumed): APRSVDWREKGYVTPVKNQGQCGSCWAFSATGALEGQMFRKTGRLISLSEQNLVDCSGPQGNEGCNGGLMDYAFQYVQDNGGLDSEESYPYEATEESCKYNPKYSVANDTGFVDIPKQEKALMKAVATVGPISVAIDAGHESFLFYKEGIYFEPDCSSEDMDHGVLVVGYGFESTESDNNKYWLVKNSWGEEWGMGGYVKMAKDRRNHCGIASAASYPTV

Row | Structure (SMILES) | selectivity for AEP over Cathepsin-L [1] | density of dendritic spines (Golgi stain) ([2]; 5XFAD mice) | density of synapse (electron microscopy) ([2]; CA1 area, 5XFAD mice) | long-term potentiation (LTP) magnitude ([2]; Schaffer collateral-CA1, 5XFAD mice) | systemic toxicity [3] | body weight ([3]; oral gavage, 30-day period) | complete blood count (CBC) parameters ([3]; oral gavage, 30-day period) | immunohistochemical staining, drug-treated vs vehicle-treated ([3]; oral gavage, 30-day period)
1 | Sc1nnc(Nc2ccccc2)s1 [Compound BB1] | about 38 fold |  |  |  |  |  |  | 
2 | Nc1ccc(N2CCOCC2)c2nonc12 [Compound 11] |  | increased; also recorded: reversed | notably increased | significantly reversed the LTP deficits; also recorded: enhanced | does not exhibit systemic toxicity | no significant change | within the normal range | no major differences
